Values quoted from earlier work as cited in patent publication US20070072232A1, “Identification of genetic components of drug response” (Variagenics, Inc. a Delaware corporation, priority 2000, published 2007).
Structures can show the parent of a compound that is named as a salt.

Tested on: Alzheimer's disease
Settings: per PDR

## Nc1c2c(nc3ccccc13)CCCC2 [Cognex, tacrine hydrochloride]
Patients receiving Cognex for Alzheimer's disease
  patients showing no change or minimal worsening of their disease: about 45%
Patients receiving Cognex
  Alzheimer's patients minimally improved: About 58%
  patients much improved: about 2%
